# Laboratory results published in patent US20090156509A1, “Tri-peptide Inhibitors of Serine Elastases” (Accuthera, Inc., priority 2007, published 2009).
# Columns and labels:
# [1] = molecular target: T1, PR3 (human neutrophil proteinase 3) (Homo sapiens, UniProt P24158); assay: PR3 enzyme inhibition, Ki determination; format: biochemical; settings: substrate Boc-Ala-Pro-Nva-4-chloro-SBzl, pH 7.6
# T1 construct: Enzymes PR3 and HNE (HLE) were purchased from Athens Research and Technology (Athens, Ga.) or Elastin Products (Owensville, Mich.); purchased Athens Research and Technology (Athens, Ga.) or Elastin Products (Owensville, Mich.)
# T1 sequence (P24158 28-248): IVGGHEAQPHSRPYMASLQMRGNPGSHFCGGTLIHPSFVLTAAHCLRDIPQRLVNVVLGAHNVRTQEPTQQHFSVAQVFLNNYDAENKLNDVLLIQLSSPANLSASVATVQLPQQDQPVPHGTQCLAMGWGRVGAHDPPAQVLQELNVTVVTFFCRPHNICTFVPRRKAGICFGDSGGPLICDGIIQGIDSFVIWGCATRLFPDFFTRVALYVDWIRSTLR
# Procedure: (§1) The assays for measurement of PR3 and HNE enzyme and inhibitory activity were performed generally as described by Coeschott et al., Proc. Nat. Acad. Sci. USA, 96: 6261-6266, (1999). Kinetic characterization was performed generally by the techniques of Wieczorek et al., Archives of Biochem. and BioPhys., 367: 193-201 (1999). Enzymes PR3 and HNE (HLE) were purchased from Athens Research and Technology (Athens, Ga.) or Elastin Products (Owensville, Mich.).
# (§2) The substrate used for HNE was MeO-Suc-Ala-Ala-Pro-Val-pNA, in 0.05 M sodium phosphate/0.1 M NaCl, pH 7.6, containing 0.001% Triton X-100 and 5% DMSO. The substrate used for PR3 was Boc-Ala-Pro-Nva-4-chloro-SBzl in 0.05 M potassium phosphate/0.1 M KCl, pH 7.6, containing 0.001% Triton X-100, and 10% DMSO. The cleavage of the thiobenzyl ester was detected with 250 μM […] (5′,5′-dithiobis-2-nitrobenzoic acid).
# [2] = Solubility in 0.1 M PBS by LC-MS; format: physicochemical; settings: aqueous buffer, kinetic from dmso stock; 0.1 M PBS pH 7.4, 2% DMSO, 2 hours at 37° C.
# Procedure: Solubility of test compounds was measured by adding small volumes of DMSO stock solutions (final concentration 2% DMSO) to 0.1 M PBS (pH 7.4) and incubating for 2 hours at 37° C. Subsequently, the samples were filtered and the concentration of test compounds was determined by LC-MS.
# [3] = Plasma stability in dog plasma; format: in vitro ADME; settings: 37° C., 2 hours, read-out: Plasma Stability (t1/2)
# Procedure: Plasma stability of test compounds was accessed by incubating with dog plasma (37° C. at 1 μM) for 2 hours. Aliquots were taken at pre-defined times and the disappearance of parent compound was monitored by LC-MS.
# [4] = molecular target: T2, HNE (human neutrophil elastase) (Homo sapiens, UniProt P08246); assay: HNE enzyme inhibition, kinetic Ki determination; format: biochemical; settings: for Ki: substrate MeO-Suc-Ala-Ala-Pro-Val-pNA, pH 7.6, read-out: Ki (NE)
# T2 construct: Enzymes PR3 and HNE (HLE) were purchased from Athens Research and Technology (Athens, Ga.) or Elastin Products (Owensville, Mich.); purchased Athens Research and Technology (Athens, Ga.) or Elastin Products (Owensville, Mich.)
# T2 sequence (P08246 30-267): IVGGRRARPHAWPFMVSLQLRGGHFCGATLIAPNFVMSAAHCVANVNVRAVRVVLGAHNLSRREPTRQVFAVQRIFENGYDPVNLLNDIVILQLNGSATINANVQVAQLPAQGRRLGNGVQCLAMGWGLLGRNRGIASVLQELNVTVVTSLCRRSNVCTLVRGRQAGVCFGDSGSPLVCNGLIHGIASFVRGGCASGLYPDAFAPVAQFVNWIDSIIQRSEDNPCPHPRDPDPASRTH
# Procedure: as §1, §2
# The concentration of active site of HNE was determined by titration with N-benzyloxycarbonyl-Ala-Ala-Pro-azaAla p-nitrophenyl ester or an alternative method. For the alternative method, the concentration of the active center of a HNE solution was first titrated with the above p-nitrophenyl ester, this HNE solution was then used to measure the active center concentration of an eglin c solution. Aliquots of the eglin c solution were stored at −70° C. and employed as a second standard to assay the activity of any newly prepared HNE solutions. No change in the activity of eglin c could be detected over a 3 year time interval as long as the solution was stored at −70° C. An important factor which influences the HNE assay is the method of dissolution of lyophilized enyme: if HNE is obtained in the lyophilized state, the protease solution should be dissolved, aliquoted, and stored at −20° C. for at least 48 hours prior to assay, so that the dried protein can be completely hydrated. Freshly dissolved enzyme which has not been stored for 48 hours may have proteolytic activity which is 10%-20% less that of stored enzyme.
# Consequently, it is not always easy to achieve conditions in which the initial concentration of free inhibitor, [I]o, is much larger than the initial concentration of free enzyme, [E]o, i.e. the condition of [I]o≧10 [E]o is not easily fulfilled. […]
# can only be employed when the condition of [I]o≧10 [E]o is fulfilled. In those cases in which the condition of [I]o≧10 [E]o is not met, the experimental data is analyzed using the Henderson equations according to the classic procedure (Henderson, P. J. F. Biochem. J. 127: 321, 1972) or with equations derived for slow-binding inhibition (Ying, Q-L. et al, Biochemistry 33: 5445, 1994). […]
# [5] = Protein binding in dog plasma by equilibrium dialysis; format: in vitro ADME; settings: 10 μM, 6 hours at 37° C.
# Procedure: Protein binding of test compounds in dog plasma was assessed by performing equilibrium dialysis with plasma containing test compound (10 μM) against 0.1 M PBS (pH 7.4). Following incubation (6 hours at 37° C.), the parent compound was measured in both plasma and buffer compartments by LC-MS and the percentage of compound bound to plasma proteins determined. […] Generally it is believed that only the unbound drug is available for pharmacological action.
SMILES,Ki [1] [nM],solubility at 2 h [2] [µM],half-life at 1 μM [3] [h],Ki [4] [nM],Plasma Protein Binding (% free) [5] [% free],Protein binding in dog plasma (% bound) [5] [% bound],Ki for HLE (in words) ([4]; tight binding inhibitor of HLE)
CC(C)[C@H](NC(=O)[C@@H]1CCCN1C(=O)[C@@H](NC(=O)CCCCCNC(=O)c1ccccn1)C(C)C)C(=O)c1nnc(-c2ccccc2)o1 [AI-158],8.4,69,> 1.67,0.22,8.0,92,–
CC(C)[C@H](NC(=O)CCCCCNC(=O)c1ccccn1)C(=O)N1CCC[C@H]1C(=O)N[C@H](C(=O)C(F)(F)F)C(C)C [AI-167],–,164,> 1.67,–,19.0,81,–
CC(C)[C@H](NC(=O)[C@@H]1CCCN1C(=O)[C@@H](NC(=O)CCCCCNC(=O)c1ccccn1)C(C)C)C(=O)c1nnc(C(C)(C)C)o1 [AI-168],3.9,179,> 1.67,0.2,17.0,83,–
"Cc1cccc(Cc2nnc(C(=O)[C@@H](NC(=O)[C@@H]3CCCN3C(=O)[C@@H](NC(=O)OCc3ccccc3)C(C)C)C(C)C)o2)c1 [CE-2072, reference compound]",24,< 10,> 1.67,0.24,1.0,–,subnanomolar range
